{"source": "patent US5300491A", "about": "“Treatment of protozoal infection” (priority 1992, dated 1994)", "key": {"[1]": {"system": "intestinal amoebic infections", "conditions": "cited from earlier work"}, "E. histolytica": {"system": "E. histolytica", "assay": "Amoebiasis clinical study", "format": "in vivo, Human", "description": "Cysts and trophozoites of E. histolytica were detected initially by wet preparation screening of faeces, and later confirmed by the formal-ether technique. Full parasitological cure was based upon the presentation of 1-2 negative stool samples within one week post treatment.\nIn a dose-effect segment of the study, two groups of symptomatic E. histolytica cyst or trophozoite passers attending an outpatient clinic for abdominal pains were treated for either ten or five days.\nIn a dose-duration study, three groups of patients were observed: Group 1 - symptomatic cyst and trophozoite passers; Group 2 - dysenteric patients with bloody diarrheas; and, Group 3 - asymptomatic cyst passers."}, "mouse lymphoma cell": {"system": "mouse lymphoma cell", "conditions": "cited from earlier work"}, "Cryptosporidium parvum": {"system": "Cryptosporidium parvum", "format": "in vivo, Human", "excerpt": "The patient was a child, weighing approximately 30 kg. For years, the patient had suffered from moderate diarrhea. Prior to being treated with zinc bacitracin, the patient's stool repeatedly tested positive for intestinal Cryptosporidia. […] The patient received sulfonamide and cefalexin for the influenza during the hiatus. The zinc bacitracin treatment resumed approximately one month later and continued for two weeks thereafter.\nAfter the treatment period, it was observed that the drug was well-tolerated by the patient."}, "[2]": {"conditions": "cited from earlier work"}, "[3]": {"system": "human peripheral lymphocytes", "conditions": "cited from earlier work"}, "G. lamblia": {"system": "G. lamblia", "assay": "G. lamblia clinical study", "format": "in vivo, Human", "conditions": "for patients responding: 200,000 IU daily as tablets for ten days", "excerpt": "Based upon this dosage, 6 of the ten metronida-zole-resistant patients in Sweden responded to this regime. In addition, all of the 11 non-selected patients in Romania responded to this regime. Eight of these 11 non-selected patients remained clear of infection for the length of the study."}, "spleen cells of rats": {"system": "spleen cells of rats", "conditions": "rat, in vivo; cited from earlier work"}, "[4]": {"system": "histidine auxotrophs of Salmonella typhimurium", "conditions": "absence and presence of a rat liver activating system; cited from earlier work"}, "[5]": {"conditions": "Group 1, 9 patients treated for two days"}, "[6]": {"conditions": "Group 1, 12 patients treated for 3 days"}, "[7]": {"conditions": "Table 5 dose-effect study, symptomatic cyst & trophozoite passers, 100,000 I.U. daily for 5 days, 5 patients"}, "[8]": {"conditions": "Table 5 dose-effect study, symptomatic cyst & trophozoite passers, 100,000 I.U. daily for 10 days, 9 patients"}, "[9]": {"conditions": "Table 6 dose-duration study, Group 1 symptomatic cyst and trophozoite passers, 1 day, 2 patients"}, "[10]": {"conditions": "Table 6 dose-duration study, Group 1 symptomatic cyst and trophozoite passers, 2 days, 9 patients"}, "[11]": {"conditions": "Table 6 dose-duration study, Group 1 symptomatic cyst and trophozoite passers, 3 days, 12 patients"}, "[12]": {"conditions": "Table 6 dose-duration study, Group 1 symptomatic cyst and trophozoite passers, 5 days, 5 patients"}, "[13]": {"conditions": "Table 7 dose-duration study, Group 2 dysentery cases, 3 days, 5 patients"}, "[14]": {"conditions": "Table 8 dose-duration study, Group 3 asymptomatic cyst passers, 3 days, 9 patients"}, "[15]": {"conditions": "Table 8 dose-duration study, Group 3 asymptomatic cyst passers, 5 days, 9 patients"}, "[16]": {"conditions": "11 non-selected patients in Romania"}}, "note": "Bridge positions count the residues as written; N and C are the ends. Square brackets hold non-standard residues; d marks the D form. Peptide text beside a SMILES is read from it. * marks the point of attachment. Ileψ(thiazoline)Cys = CC[C@H](C)[C@H](N)C1=N[C@H](C(=O)*)CS1; dOrn = NCCC[C@@H](N)C(=O)O", "data": [{"molecule": "CC[C@H](C)[C@H](N)C1=N[C@H](C(=O)N[C@@H](CC(C)C)C(=O)N[C@H](CCC(=O)O)C(=O)N[C@H](C(=O)N[C@H]2CCCCNC(=O)[C@H](CC(N)=O)NC(=O)[C@@H](CC(=O)O)NC(=O)[C@H](Cc3cnc[nH]3)NC(=O)[C@@H](Cc3ccccc3)NC(=O)[C@H]([C@@H](C)CC)NC(=O)[C@@H](CCCN)NC2=O)[C@@H](C)CC)CS1", "note": "[Bacitracin, reference compound] ({Ileψ(thiazoline)Cys}-L[dE]IK[dOrn]I[dF]H[dD]N; lactam 4-C)", "values": [{"measurement": "parasitological cure", "setting": "[1]; 51 patients, 10-20 days, 40,000 to 160,000 units", "value": 66, "unit": "%"}, {"measurement": "cure rate", "setting": "[1]; 100,000 I.U. daily over ten days", "value": "< 100", "unit": "%"}]}, {"molecule": "Zinc bacitracin", "values": [{"measurement": "cure", "setting": "E. histolytica; 100,000 I.U. daily for 3-5 days", "value": 100, "unit": "%"}, {"measurement": "cure rate", "setting": "E. histolytica; [5]", "value": 55, "unit": "%"}, {"measurement": "relapse rate", "setting": "E. histolytica; [5]", "value": 60, "unit": "%"}, {"measurement": "patients relapsed (at days 6 and 10)", "setting": "E. histolytica; [6]", "value": 16, "unit": "%"}, {"measurement": "primary cure rate", "setting": "E. histolytica; [6]", "value": 100, "unit": "%"}, {"measurement": "treatment outcome", "setting": "E. histolytica; Group 1, two patients treated for 1 day", "value": "without success"}, {"measurement": "subjects showing parasites in their stools again after two weeks", "setting": "E. histolytica; Group 3 asymptomatic cyst passers, five-day regimen, 9 subjects", "value": 44, "unit": "%"}, {"measurement": "Number Relapsing", "setting": "E. histolytica; [7]", "value": 0}, {"measurement": "Number Responding", "setting": "E. histolytica; [7]", "value": 5}, {"measurement": "Number Relapsing", "setting": "E. histolytica; [8]", "value": 0}, {"measurement": "Number Responding", "setting": "E. histolytica; [8]", "value": 9}, {"measurement": "Number Relapsing", "setting": "E. histolytica; [9]", "value": 1}, {"measurement": "Number Responding", "setting": "E. histolytica; [9]", "value": 1}, {"measurement": "Number Relapsing", "setting": "E. histolytica; [10]", "value": 3}, {"measurement": "Number Responding", "setting": "E. histolytica; [10]", "value": 5}, {"measurement": "Number Relapsing", "setting": "E. histolytica; [11]", "value": 2}, {"measurement": "Number Responding", "setting": "E. histolytica; [11]", "value": 12}, {"measurement": "Number Relapsing", "setting": "E. histolytica; [12]", "value": 1}, {"measurement": "Number Responding", "setting": "E. histolytica; [12]", "value": 5}, {"measurement": "Number Relapsing", "setting": "E. histolytica; [13]", "value": 1}, {"measurement": "Number Responding", "setting": "E. histolytica; [13]", "value": 5}, {"measurement": "Number Relapsing", "setting": "E. histolytica; [14]", "value": 2}, {"measurement": "Number Responding", "setting": "E. histolytica; [14]", "value": 8}, {"measurement": "Number Relapsing", "setting": "E. histolytica; [15]", "value": 4}, {"measurement": "Number Responding", "setting": "E. histolytica; [15]", "value": 9}, {"measurement": "side effects", "setting": "E. histolytica; all patients of the amoebiasis clinical study, 100,000 I.U. daily", "value": "No side effects were reported"}, {"measurement": "cure rate", "setting": "E. histolytica; dose-effect study, 9 patients treated for 10 days", "value": 100, "unit": "%"}, {"measurement": "mutation frequency at the TK gene locus", "setting": "mouse lymphoma cell", "value": "no significant increase in the mutation frequency"}, {"measurement": "stool parasites over the course of the treatment period", "setting": "Cryptosporidium parvum; child, 30,000 units thrice daily, 8 days and later two weeks", "value": "No stool parasites were detected"}, {"measurement": "tolerability", "setting": "Cryptosporidium parvum; human, in vivo", "value": "well-tolerated"}, {"measurement": "stool test after end of treatment", "setting": "Cryptosporidium parvum; one week after the final discontinuation of treatment", "value": "began to once again test positive for intestinal cryptosporidia"}, {"measurement": "absorption from the gut", "setting": "[2]; rat, in vivo, po", "value": "not absorbed from the gut"}, {"measurement": "levels in the livers", "setting": "[2]; rat, in vivo, po", "value": "No detectable levels"}, {"measurement": "oral toxicity", "setting": "[2]; rats, sub-chronic and chronic, feed levels up to 1,000 ppm", "value": "non-toxic"}, {"measurement": "damage to chromosomal structure", "setting": "[3]", "value": "did not induce any damage to the chromosomal structure"}, {"measurement": "patients remaining clear of infection for the length of the study", "setting": "G. lamblia; [16]", "value": "Eight"}, {"measurement": "patients responding", "setting": "G. lamblia; [16]", "value": 11}, {"measurement": "patients responding", "setting": "G. lamblia; ten metronidazole-resistant patients in Sweden", "value": 6}, {"measurement": "nucleoid sedimentation velocity", "setting": "spleen cells of rats", "value": "Only a small reduction in nucleoid sedimentation velocity"}, {"measurement": "mutagenic potential", "setting": "[4]", "value": "devoid of mutagenic potential"}]}]}
